# Measured values from PMC5955799 (ACS chemical neuroscience, 2018).
# Numbered stars: 1 amine (or outer) side, 2 acyl side, 3 side chain; on linkers, the order of the positions; unused ones are H or OH. Square brackets hold non-standard residues; d marks the D form. Peptide text beside a SMILES is read from it. X1 = C#Cc1cccc(-c2cn(C[C@H](N[*:1])C(=O)[*:2])nn2)c1; X2 = C#Cc1cccc(-c2cnnn2C[C@H](N[*:1])C(=O)[*:2])c1
# Experiments:
# mMC4R = mMC4R (Mus musculus, UniProt P56450); assay: AlphaScreen cAMP agonist assay in HEK293 cells stably expressing mMC4R; details: for Fold diff (mMC4R): decrease in agonist potency compared to peptide 1
# mMC4R, sequence (P56450 whole entry): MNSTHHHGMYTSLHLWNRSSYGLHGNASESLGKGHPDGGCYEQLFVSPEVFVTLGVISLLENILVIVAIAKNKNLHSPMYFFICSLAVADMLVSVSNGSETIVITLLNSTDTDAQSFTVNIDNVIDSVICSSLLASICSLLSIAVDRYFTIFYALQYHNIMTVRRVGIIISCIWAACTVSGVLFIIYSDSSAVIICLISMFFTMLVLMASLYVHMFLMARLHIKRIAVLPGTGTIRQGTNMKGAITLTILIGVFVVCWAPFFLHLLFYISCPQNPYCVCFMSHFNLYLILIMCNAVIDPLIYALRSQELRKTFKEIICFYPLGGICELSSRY
# mMC1R = mMC1R (Mus musculus, UniProt Q01727); assay: AlphaScreen cAMP agonist assay in HEK293 cells stably expressing mMC1R; details: for Fold diff (mMC1R): decrease in agonist potency compared to peptide 1
# mMC1R, sequence (Q01727 whole entry): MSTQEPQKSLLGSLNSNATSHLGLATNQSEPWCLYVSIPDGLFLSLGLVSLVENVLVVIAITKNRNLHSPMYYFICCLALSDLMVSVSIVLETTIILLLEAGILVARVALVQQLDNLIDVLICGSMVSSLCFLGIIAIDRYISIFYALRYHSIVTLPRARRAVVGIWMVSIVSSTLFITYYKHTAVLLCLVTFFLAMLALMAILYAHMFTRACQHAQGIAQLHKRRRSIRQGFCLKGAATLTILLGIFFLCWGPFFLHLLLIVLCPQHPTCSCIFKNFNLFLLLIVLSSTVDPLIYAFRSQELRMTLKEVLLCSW
# mMC5R = mMC5R (Mus musculus, UniProt P41149); assay: AlphaScreen cAMP agonist assay in HEK293 cells stably expressing mMC5R; details: for Fold diff (mMC5R): decrease in agonist potency compared to peptide 1
# mMC5R, sequence (P41149 whole entry): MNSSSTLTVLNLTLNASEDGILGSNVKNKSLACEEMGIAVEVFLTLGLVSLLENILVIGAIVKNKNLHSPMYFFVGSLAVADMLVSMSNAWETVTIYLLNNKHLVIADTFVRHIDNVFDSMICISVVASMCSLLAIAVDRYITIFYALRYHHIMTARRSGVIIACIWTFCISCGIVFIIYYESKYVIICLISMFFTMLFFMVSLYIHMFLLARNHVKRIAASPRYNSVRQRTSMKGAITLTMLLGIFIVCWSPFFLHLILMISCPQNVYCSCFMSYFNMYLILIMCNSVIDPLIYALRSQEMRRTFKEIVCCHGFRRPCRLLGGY
# mMC3R = mMC3R (Mus musculus, UniProt P33033); assay: AlphaScreen cAMP agonist assay in HEK293 cells stably expressing mMC3R; details: for Fold diff (mMC3R): decrease in agonist potency compared to peptide 1
# mMC3R, sequence (P33033 whole entry): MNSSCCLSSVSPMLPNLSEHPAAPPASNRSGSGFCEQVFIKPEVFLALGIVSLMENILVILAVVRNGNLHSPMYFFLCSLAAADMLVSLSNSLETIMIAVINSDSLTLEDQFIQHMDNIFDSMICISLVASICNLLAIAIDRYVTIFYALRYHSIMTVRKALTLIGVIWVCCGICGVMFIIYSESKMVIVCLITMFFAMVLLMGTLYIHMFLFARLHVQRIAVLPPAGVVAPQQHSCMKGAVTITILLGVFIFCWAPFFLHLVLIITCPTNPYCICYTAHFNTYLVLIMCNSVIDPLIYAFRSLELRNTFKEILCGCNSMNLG
EC50 (mMC4R) [nM],EC50 (mMC1R) [nM],EC50 (mMC5R) [nM],EC50 (mMC3R) [nM],Fold diff (mMC4R) (mMC4R) [fold],Fold diff (mMC1R) (mMC1R) [fold],Fold diff (mMC5R) (mMC5R) [fold],Fold diff (mMC3R) (mMC3R) [fold],SMILES
0.43 ± 0.13,0.14 ± 0.01,2.4 ± 0.31,2.2 ± 0.58,–,–,–,–,"C[C@@H]1NC(=O)[C@H](CC(N)=O)NC(=O)[C@H](Cc2c[nH]c3ccccc23)NC(=O)[C@H](CCCN=C(N)N)NC(=O)[C@@H](Cc2ccccc2)NC(=O)[C@H](Cc2cnc[nH]2)NC(=O)[C@@H](NC(=O)[C@@H](N)Cc2ccc(O)cc2)CSSC[C@@H](C(=O)N[C@@H](Cc2ccc(O)cc2)C(N)=O)NC(=O)[C@H](Cc2ccccc2)NC1=O [Peptide 1, Tyr-c[Cys-His-DPhe-Arg-Trp-Asn-Ala-Phe-Cys]-Tyr-NH2, reference compound]"
1520 ± 328,802 ± 227,294 ± 4.8,1460 ± 245,3540,5728,122,665,C#Cc1cccc(-c2cn(C[C@H](NC(=O)[C@H](Cc3ccccc3)NC(=O)[C@H](C)NC(=O)[C@H](CC(N)=O)NC(=O)[C@H](Cc3c[nH]c4ccccc34)NC(=O)[C@H](CCCNC(=N)N)NC(=O)[C@@H](Cc3ccccc3)NC(=O)[C@H](Cc3c[nH]cn3)NC(=O)[C@H](Cn3cc(-c4cccc(C#C)c4)nn3)NC(=O)[C@@H](N)Cc3ccc(O)cc3)C(=O)N[C@@H](Cc3ccc(O)cc3)C(N)=O)nn2)c1 [Peptide 9] (H-Y[X1]H[dF]RWNAF[X1]Y-NH2)
142 ± 30,116 ± 40,107 ± 17,404 ± 52,330,829,45,184,C#Cc1cccc(-c2cnnn2C[C@H](NC(=O)[C@H](Cc2ccccc2)NC(=O)[C@H](C)NC(=O)[C@H](CC(N)=O)NC(=O)[C@H](Cc2c[nH]c3ccccc23)NC(=O)[C@H](CCCNC(=N)N)NC(=O)[C@@H](Cc2ccccc2)NC(=O)[C@H](Cc2c[nH]cn2)NC(=O)[C@H](Cn2nncc2-c2cccc(C#C)c2)NC(=O)[C@@H](N)Cc2ccc(O)cc2)C(=O)N[C@@H](Cc2ccc(O)cc2)C(N)=O)c1 [Peptide 12] (H-Y[X2]H[dF]RWNAF[X2]Y-NH2)
